This experiment addresses T1, MIF (Homo sapiens, UniProt P14174).
T1 sequence (P14174 2-115 limits assumed): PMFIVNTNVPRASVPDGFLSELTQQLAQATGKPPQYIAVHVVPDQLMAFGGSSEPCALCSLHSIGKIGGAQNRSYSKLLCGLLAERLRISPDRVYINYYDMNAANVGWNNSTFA
In words: MIF tautomerase assay using pHPP as substrate. The following applies: inhibition of the MIF enzyme in vitro; mean of multiple test results; read-out: Tautomerase Inhibition pIC50 (converted). Type of experiment: biochemical. The procedure, abridged:
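Cell-free keto-to-enol tautomerization of pHPP, enol product detected spectrophotometrically as borate complex. Final 3 nM MIF and 1.5 mM ketonic pHPP in DPBS/boric acid buffer with 0.025% BSA and 300 μM CHAPS, pH 6.0, room temperature; initial rates from absorbance slopes give mean pIC50.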
In the case of `Oc1ccc(N2CCN(c3nc(-n4ncc5ccccc54)c4ncn(CCc5nnn[nH]5)c4n3)CC2)cc1` [Example 117, 4-(4-(9-(2-(1H-tetrazol-5-yl)ethyl)-6-(1H-indazol-1-yl)-9H-purin-2-yl)piperazin-1-yl)phenol], the IC50 is 100 to 977 nM. To `O=C(O)Cn1cnc2c(-c3cccc4[nH]ccc34)nc(N3CCN(c4ccc(O)cc4)CC3)nc21` [Example 118, 2-(2-(4-(4-hydroxyphenyl)piperazin-1-yl)-6-(1H-indol-4-yl)-9H-purin-9-yl)acetic acid] belongs 1000 to 9770 nM; to `O=C(O)Cn1cnc2c(N3Cc4ccccc4C3=O)nc(N3CCN(c4ccc(O)cc4)CC3)nc21` [Example 119, 2-(2-(4-(4-hydroxyphenyl)piperazin-1-yl)-6-(1-oxoisoindolin-2-yl)-9H-purin-9-yl)acetic acid], 100 to 977 nM. Take `O=C(O)Cn1cnc2c(-n3nnc4cccnc43)nc(N3CCN(c4ccc(O)cc4)CC3)nc21` [Example 120, 2-(6-(3H-[1,2,3]triazolo[4,5-b]pyridin-3-yl)-2-(4-(4-hydroxyphenyl)piperazin-1-yl)-9H-purin-9-yl)acetic acid]: the IC50 was 10 to 97.7 nM. To `O=C(O)Cn1cnc2c(-n3nnc4ccncc43)nc(N3CCN(c4ccc(O)cc4)CC3)nc21` [Example 121, 2-(6-(3H-[1,2,3]triazolo[4,5-c]pyridin-3-yl)-2-(4-(4-hydroxyphenyl)piperazin-1-yl)-9H-purin-9-yl)acetic acid] belongs 10 to 97.7 nM; to `O=C(O)Cn1cnc2c(-n3nnc4c(C(=O)O)cccc43)nc(N3CCN(c4ccc(O)cc4)CC3)nc21` [Example 122, 1-(9-(carboxymethyl)-2-(4-(4-hydroxyphenyl)piperazin-1-yl)-9H-purin-6-yl)-1H-benzo[d][1,2,3]triazole-4-carboxylic acid], 10 to 97.7 nM; to `O=C(O)Cn1cnc2c(-n3nnc4c(CO)cccc43)nc(N3CCN(c4ccc(O)cc4)CC3)nc21` [Example 123, 2-(6-(4-(hydroxymethyl)-1H-benzo[d][1,2,3]triazol-1-yl)-2-(4-(4-hydroxyphenyl)piperazin-1-yl)-9H-purin-9-yl)acetic acid], 10 to 97.7 nM. With `CC(C(=O)O)n1cnc2c(-n3ncc4ccccc43)nc(N3CCN(c4ccc(O)cc4)CC3)nc21` (stereo not shown) [Example 124, 2-(2-(4-(4-hydroxyphenyl)piperazin-1-yl)-6-(1H-indazol-1-yl)-9H-purin-9-yl)propanoic acid], the IC50 is 10 to 97.7 nM. In the case of `CC(C(=O)O)n1cnc2nc(N3CCN(c4ccc(O)cc4)CC3)nc(-n3ncc4ccccc43)c21` (stereo not shown) [Example 125, 2-(2-(4-(4-hydroxyphenyl)-piperazin-1-yl)-6-(1H-indazol-1-yl)-7H-purin-7-yl)propanoic acid], the IC50 was 100 to 977 nM. Take `CC(C(=O)O)n1cnc2c(-n3cc4ccccc4n3)nc(N3CCN(c4ccc(O)cc4)CC3)nc21` (stereo not shown) [Example 126, 2-(2-(4-(4-hydroxyphenyl)piperazin-1-yl)-6-(2H-indazol-2-yl)-9H-purin-9-yl)propanoic acid]: the IC50 is 100 to 977 nM. With `CCC(C(=O)O)n1cnc2c(-n3ncc4ccccc43)nc(N3CCN(c4ccc(O)cc4)CC3)nc21` (stereo not shown) [Example 127, 2-(2-(4-(4-hydroxyphenyl)piperazin-1-yl)-6-(1H-indazol-1-yl)-9H-purin-9-yl)butanoic acid] the figure was 10 to 97.7 nM; with `CC(C)(C(=O)O)n1cnc2c(-n3ncc4ccccc43)nc(N3CCN(c4ccc(O)cc4)CC3)nc21` [Example 128, 2-(2-(4-(4-hydroxyphenyl)piperazin-1-yl)-6-(1H-indazol-1-yl)-9H-purin-9-yl)-2-methylpropanoic acid], 10 to 97.7 nM; with `O=C(O)Cn1cnc2c(-n3ncc4ccccc43)nc(N3CCN(c4ccc(O)nc4)CC3)nc21` [Example 129, 2-(2-(4-(6-hydroxypyridin-3-yl)piperazin-1-yl)-6-(1H-indazol-1-yl)-9H-purin-9-yl)acetic acid], above 10000 nM. For the molecule `O=C(O)Cn1cnc2c(-n3ncc4ccccc43)nc(N3CCN(c4ncc(O)cc4F)CC3)nc21` [Example 130, 2-(2-(4-(3-fluoro-5-hydroxypyridin-2-yl)piperazin-1-yl)-6-(1H-indazol-1-yl)-9H-purin-9-yl)acetic acid], the IC50 is above 10000 nM. On to `COC(=O)Cn1cnc2c(-n3ncc4ccccc43)nc(N3CCN(c4ccc(O)cc4)CC3)nc21` [Example 131, methyl 2-(2-(4-(4-hydroxyphenyl)piperazin-1-yl)-6-(1H-indazol-1-yl)-9H-purin-9-yl)acetate], for which the IC50 is 100 to 977 nM. With `O=C(O)CNC(=O)Cn1cnc2c(-n3ncc4ccccc43)nc(N3CCN(c4ccc(O)cc4)CC3)nc21` [Example 132, 2-(2-(2-(4-(4-hydroxyphenyl)piperazin-1-yl)-6-(1H-indazol-1-yl)-9H-purin-9-yl)acetamido)acetic acid] the figure was 10 to 97.7 nM; with `OCC(CO)n1cnc2c(N3CCc4ccccc43)nc(N3CCN(c4ccc(O)cc4)CC3)nc21` [Example 133, 2-(2-(4-(4-hydroxyphenyl)piperazin-1-yl)-6-(indolin-1-yl)-9H-purin-9-yl)propane-1,3-diol], 100 to 977 nM. On to `N#Cc1nn(-c2nc(N3CCN(c4ccc(O)cc4)CC3)nc3c2ncn3CC(=O)O)c2ccccc12` [Example 134, 2-(2-(4-(4-hy-droxyphenyl)piperazin-1-yl)-6-(3-cyano-1H-indazol-1-yl)-9H-purin-9-yl)acetic acid], for which the IC50 is 10 to 97.7 nM. To `O=C(O)Cn1cnc2c(-n3nc(-c4nnn[nH]4)c4ccccc43)nc(N3CCN(c4ccc(O)cc4)CC3)nc21` [Example 135] belongs 10 to 97.7 nM; to `O=C1c2ccccc2C(=O)N1CCn1cnc2c(-n3ncc4ccccc43)nc(N3CCN(c4ccc(O)cc4)CC3)nc21` [Example 136, 2-(2-(2-(4-(4-hydroxyphenyl)piperazin-1-yl)-6-(1H-indazol-1-yl)-9H-purin-9-yl)ethyl)isoindoline-1,3-dione], 1000 to 9770 nM. To `NCCn1cnc2c(-n3ncc4ccccc43)nc(N3CCN(c4ccc(O)cc4)CC3)nc21` [Example 137, 4-(4-(9-(2-aminoethyl)-6-(1H-indazol-1-yl)-9H-purin-2-yl)piperazin-1-yl)phenol] belongs 1000 to 9770 nM; to `CC(=O)NCCn1cnc2c(-n3ncc4ccccc43)nc(N3CCN(c4ccc(O)cc4)CC3)nc21` [Example 138, N-(2-(2-(4-(4-hydroxyphenyl)piperazin-1-yl)-6-(1H-indazol-1-yl)-9H-purin-9-yl)ethyl)acetamide], 100 to 977 nM. As to `CS(=O)(=O)NCCn1cnc2c(-n3ncc4ccccc43)nc(N3CCN(c4ccc(O)cc4)CC3)nc21` [Example 139, N-(2-(2-(4-(4-hydroxyphenyl)piperazin-1-yl)-6-(1H-indazol-1-yl)-9H-purin-9-yl)ethyl)methanesulfonamide], the IC50 was 1000 to 9770 nM. `O=C(O)Cn1cnc2c(-n3ncc4ccccc43)nc(N3CCN(c4ccc5[nH]ncc5c4)CC3)nc21` [Example 140, 2-(2-(4-(1H-indazol-5-yl)piperazin-1-yl)-6-(1H-indazol-1-yl)-9H-purin-9-yl)acetic acid]: the IC50 is above 10000 nM.

For the molecule `CC(C)(C(=O)O)n1cnc2c(-n3ncc4ccccc43)nc(N3CCN(c4ccc(O)cn4)CC3)nc21` [Example 141, 2-(2-(4-(5-hydroxypyridin-2-yl)piperazin-1-yl)-6-(1H-indazol-1-yl)-9H-purin-9-yl)-2-methylpropanoic acid], the IC50 is 10 to 97.7 nM.

The record behind these values is patent publication US20220144838A1, “Compounds as Inhibitors of Macrophage Migration Inhibitory Factor” (NANJING IMMUNOPHAGE BIOTECH CO., LTD., priority 2019, published 2022).
